# Laboratory results as given in patent US10363239B2, “Method for inhibiting growth of cancer cells” (Pain Therapeutics, Inc., priority 2013, dated 2019).
# System: mu opiate receptor (MOR)
# Experiment: MOR agonist activity using [35S]GTPγS binding assay in striatal membranes
# Format: biochemical
# Conditions: Series B; 0.1 μM compound, relative to DAMGO
# Procedure, shortened: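 Striatal membranes (200 μg) were preincubated 5 min at 30 °C in HEPES pH 7.5 with 100 mM NaCl, 1 mM MgCl2 and 0.5 nM [35S]GTPγS, then 5 min more with 0.1–10 μM compound. Gαo was immunoprecipitated and bound radioactivity counted by scintillation.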
row,Structure (SMILES),% DAMGO (0.1 μM) [%]
1,COc1cccc(OC)c1C(=O)CC1c2c(cc3c(c2OC)OCO3)CC[N+]1(C)C (stereo not drawn) [Compound B0023],99.4

# Same assay, conditions: Series B; 0.1 μM compound; [35S]GTPγS binding to Gαo, striatal membranes
row,Structure (SMILES),"MOR agonist activity, percent [35S]GTPγS binding at the stated compound concentration [%]"
1,COc1cccc(OC)c1C(=O)CC1c2c(cc3c(c2OC)OCO3)CC[N+]1(C)C (stereo not drawn) [Compound B0023],166.1

# Same assay, conditions: Series B; 1 μM compound + 1 μM β-FNA
row,Structure (SMILES),"MOR agonist activity, percent [35S]GTPγS binding at the stated compound concentration [%]"
1,COc1cccc(OC)c1C(=O)CC1c2c(cc3c(c2OC)OCO3)CC[N+]1(C)C (stereo not drawn) [Compound B0023],28.4

# Same assay, conditions: Series B; 1 μM compound + β-FNA, relative to DAMGO + BFNA
row,Structure (SMILES),% DAMGO + BFNA [%]
1,COc1cccc(OC)c1C(=O)CC1c2c(cc3c(c2OC)OCO3)CC[N+]1(C)C (stereo not drawn) [Compound B0023],81.8

# Same assay, conditions: Series B; 1 μM compound, relative to DAMGO
row,Structure (SMILES),% DAMGO (1 μM) [%]
1,COc1cccc(OC)c1C(=O)CC1c2c(cc3c(c2OC)OCO3)CC[N+]1(C)C (stereo not drawn) [Compound B0023],100.1

# Same assay, conditions: Series B; 1 μM compound; [35S]GTPγS binding to Gαo, striatal membranes
row,Structure (SMILES),"MOR agonist activity, percent [35S]GTPγS binding at the stated compound concentration [%]"
1,COc1cccc(OC)c1C(=O)CC1c2c(cc3c(c2OC)OCO3)CC[N+]1(C)C (stereo not drawn) [Compound B0023],245.3

# Same assay, conditions: Series C-1; 0.1 μM compound, relative to DAMGO
row,Structure (SMILES),% DAMGO (0.1 μM) [%]
1,COc1ccc(C(=O)N2CCOC23CCN(S(=O)(=O)c2ccc(OC)cc2)CC3)cc1 [Compound C0019],59.1
2,COc1ccc(S(=O)(=O)N2CCC3(CC2)OCCN3S(=O)(=O)c2ccc(OC)c(OC)c2)cc1OC [Compound C0049],73.5
3,CC(=O)c1ccc(S(=O)(=O)N2CCC3(CC2)OCC(CCCCN(C)C)N3S(=O)(=O)c2ccc(C(C)=O)cc2)cc1 (stereo not drawn) [Compound C0080],112.1
4,O=S(=O)(c1ccc2ccccc2c1)N1CCC2(CC1)OCCN2S(=O)(=O)c1ccc2ccccc2c1 [Compound C0140M],85.8
5,O=S(=O)(c1ccc(Br)cc1Br)N1CCC2(CC1)OCCN2S(=O)(=O)c1ccc(Br)cc1Br [Compound C0070],96.2
6,O=S(=O)(c1ccc(Oc2ccccc2)cc1)N1CCC2(CC1)OCCN2S(=O)(=O)c1ccc(Oc2ccccc2)cc1 [Compound C0149M],122.0

# Same assay, conditions: Series C-1; 0.1 μM compound; [35S]GTPγS binding to Gαo, striatal membranes
row,Structure (SMILES),Concentration of FLNA-Binding Compound as Agonist 0.1 μM [%]
1,COc1ccc(C(=O)N2CCOC23CCN(S(=O)(=O)c2ccc(OC)cc2)CC3)cc1 [Compound C0019],104.4
2,COc1ccc(S(=O)(=O)N2CCC3(CC2)OCCN3S(=O)(=O)c2ccc(OC)c(OC)c2)cc1OC [Compound C0049],106.6
3,CC(=O)c1ccc(S(=O)(=O)N2CCC3(CC2)OCC(CCCCN(C)C)N3S(=O)(=O)c2ccc(C(C)=O)cc2)cc1 (stereo not drawn) [Compound C0080],187.9
4,O=S(=O)(c1ccc2ccccc2c1)N1CCC2(CC1)OCCN2S(=O)(=O)c1ccc2ccccc2c1 [Compound C0140M],126.1
5,O=S(=O)(c1ccc(Br)cc1Br)N1CCC2(CC1)OCCN2S(=O)(=O)c1ccc(Br)cc1Br [Compound C0070],165.6
6,O=S(=O)(c1ccc(Oc2ccccc2)cc1)N1CCC2(CC1)OCCN2S(=O)(=O)c1ccc(Oc2ccccc2)cc1 [Compound C0149M],209.8

# Same assay, conditions: Series C-1; 1 μM compound + 1 μM β-FNA
row,Structure (SMILES),Concentration of FLNA-Binding Compound as Agonist 1 μM + BFNA [%]
1,COc1ccc(C(=O)N2CCOC23CCN(S(=O)(=O)c2ccc(OC)cc2)CC3)cc1 [Compound C0019],52.8
2,COc1ccc(S(=O)(=O)N2CCC3(CC2)OCCN3S(=O)(=O)c2ccc(OC)c(OC)c2)cc1OC [Compound C0049],81.0
3,CC(=O)c1ccc(S(=O)(=O)N2CCC3(CC2)OCC(CCCCN(C)C)N3S(=O)(=O)c2ccc(C(C)=O)cc2)cc1 (stereo not drawn) [Compound C0080],167.1
4,O=S(=O)(c1ccc2ccccc2c1)N1CCC2(CC1)OCCN2S(=O)(=O)c1ccc2ccccc2c1 [Compound C0140M],83.0
5,O=S(=O)(c1ccc(Br)cc1Br)N1CCC2(CC1)OCCN2S(=O)(=O)c1ccc(Br)cc1Br [Compound C0070],114.2
6,O=S(=O)(c1ccc(Oc2ccccc2)cc1)N1CCC2(CC1)OCCN2S(=O)(=O)c1ccc(Oc2ccccc2)cc1 [Compound C0149M],93.4

# Same assay, conditions: Series C-1; 1 μM compound + β-FNA, relative to DAMGO + BFNA
row,Structure (SMILES),% DAMGO + BFNA [%]
1,COc1ccc(C(=O)N2CCOC23CCN(S(=O)(=O)c2ccc(OC)cc2)CC3)cc1 [Compound C0019],80.4
2,COc1ccc(S(=O)(=O)N2CCC3(CC2)OCCN3S(=O)(=O)c2ccc(OC)c(OC)c2)cc1OC [Compound C0049],184.1
3,CC(=O)c1ccc(S(=O)(=O)N2CCC3(CC2)OCC(CCCCN(C)C)N3S(=O)(=O)c2ccc(C(C)=O)cc2)cc1 (stereo not drawn) [Compound C0080],351.8
4,O=S(=O)(c1ccc2ccccc2c1)N1CCC2(CC1)OCCN2S(=O)(=O)c1ccc2ccccc2c1 [Compound C0140M],211.2
5,O=S(=O)(c1ccc(Br)cc1Br)N1CCC2(CC1)OCCN2S(=O)(=O)c1ccc(Br)cc1Br [Compound C0070],331.0
6,O=S(=O)(c1ccc(Oc2ccccc2)cc1)N1CCC2(CC1)OCCN2S(=O)(=O)c1ccc(Oc2ccccc2)cc1 [Compound C0149M],102.3

# Same assay, conditions: Series C-1; 1 μM compound, relative to DAMGO
row,Structure (SMILES),% DAMGO (1 μM) [%]
1,COc1ccc(C(=O)N2CCOC23CCN(S(=O)(=O)c2ccc(OC)cc2)CC3)cc1 [Compound C0019],68.1
2,COc1ccc(S(=O)(=O)N2CCC3(CC2)OCCN3S(=O)(=O)c2ccc(OC)c(OC)c2)cc1OC [Compound C0049],90.1
3,CC(=O)c1ccc(S(=O)(=O)N2CCC3(CC2)OCC(CCCCN(C)C)N3S(=O)(=O)c2ccc(C(C)=O)cc2)cc1 (stereo not drawn) [Compound C0080],92.4
4,O=S(=O)(c1ccc2ccccc2c1)N1CCC2(CC1)OCCN2S(=O)(=O)c1ccc2ccccc2c1 [Compound C0140M],106.5
5,O=S(=O)(c1ccc(Br)cc1Br)N1CCC2(CC1)OCCN2S(=O)(=O)c1ccc(Br)cc1Br [Compound C0070],95.9
6,O=S(=O)(c1ccc(Oc2ccccc2)cc1)N1CCC2(CC1)OCCN2S(=O)(=O)c1ccc(Oc2ccccc2)cc1 [Compound C0149M],124.8

# Same assay, conditions: Series C-1; 1 μM compound; [35S]GTPγS binding to Gαo, striatal membranes
row,Structure (SMILES),Concentration of FLNA-Binding Compound as Agonist 1 μM [%]
1,COc1ccc(C(=O)N2CCOC23CCN(S(=O)(=O)c2ccc(OC)cc2)CC3)cc1 [Compound C0019],176.6
2,COc1ccc(S(=O)(=O)N2CCC3(CC2)OCCN3S(=O)(=O)c2ccc(OC)c(OC)c2)cc1OC [Compound C0049],210.0
3,CC(=O)c1ccc(S(=O)(=O)N2CCC3(CC2)OCC(CCCCN(C)C)N3S(=O)(=O)c2ccc(C(C)=O)cc2)cc1 (stereo not drawn) [Compound C0080],205.4
4,O=S(=O)(c1ccc2ccccc2c1)N1CCC2(CC1)OCCN2S(=O)(=O)c1ccc2ccccc2c1 [Compound C0140M],215.4
5,O=S(=O)(c1ccc(Br)cc1Br)N1CCC2(CC1)OCCN2S(=O)(=O)c1ccc(Br)cc1Br [Compound C0070],210.8
6,O=S(=O)(c1ccc(Oc2ccccc2)cc1)N1CCC2(CC1)OCCN2S(=O)(=O)c1ccc(Oc2ccccc2)cc1 [Compound C0149M],406.7

# Molecular target: FLNA pentapeptide of SEQ ID NO: 1 (Bn-VAKGL) (Homo sapiens, UniProt P21333)
# Experiment: FITC-NLX-based FLNA screening assay (inhibition of FITC-naloxone binding to Bn-VAKGL on streptavidin plates)
# Conditions: FLNA-binding compound 0.01 μM; 10 nM FITC-NLX; read-out: Percent Binding Inhibition
row,Structure (SMILES),inhibition at 0.01 µM [%]
1,COc1ccc(S(=O)(=O)N2CCC3(CC2)OCCN3S(=O)(=O)c2ccc(OC)c(OC)c2)cc1OC [Compound C0049],25.3
2,CC(=O)c1ccc(S(=O)(=O)N2CCC3(CC2)OCC(CCCCN(C)C)N3S(=O)(=O)c2ccc(C(C)=O)cc2)cc1 (stereo not drawn) [Compound C0080],46.8
3,O=S(=O)(c1ccc(Br)cc1Br)N1CCC2(CC1)OCCN2S(=O)(=O)c1ccc(Br)cc1Br [Compound C0070],42.6

# Same assay, conditions: FLNA-binding compound 0.1 μM; 10 nM FITC-NLX; read-out: Percent Binding Inhibition
row,Structure (SMILES),inhibition at 0.1 µM [%]
1,COc1ccc(S(=O)(=O)N2CCC3(CC2)OCCN3S(=O)(=O)c2ccc(OC)c(OC)c2)cc1OC [Compound C0049],27.9
2,CC(=O)c1ccc(S(=O)(=O)N2CCC3(CC2)OCC(CCCCN(C)C)N3S(=O)(=O)c2ccc(C(C)=O)cc2)cc1 (stereo not drawn) [Compound C0080],53.3
3,O=S(=O)(c1ccc(Br)cc1Br)N1CCC2(CC1)OCCN2S(=O)(=O)c1ccc(Br)cc1Br [Compound C0070],50.6

# Same assay, conditions: FLNA-binding compound 1 μM; 10 nM FITC-NLX; read-out: Percent Binding Inhibition
row,Structure (SMILES),inhibition at 1 µM [%]
1,COc1ccc(S(=O)(=O)N2CCC3(CC2)OCCN3S(=O)(=O)c2ccc(OC)c(OC)c2)cc1OC [Compound C0049],30.3
2,CC(=O)c1ccc(S(=O)(=O)N2CCC3(CC2)OCC(CCCCN(C)C)N3S(=O)(=O)c2ccc(C(C)=O)cc2)cc1 (stereo not drawn) [Compound C0080],54.6
3,O=S(=O)(c1ccc(Br)cc1Br)N1CCC2(CC1)OCCN2S(=O)(=O)c1ccc(Br)cc1Br [Compound C0070],53.6

# Same assay, conditions: read-out: Percent Binding Inhibition, FLNA-binding compound 0.01 μM; 10 nM FITC-NLX
row,Structure (SMILES),inhibition at 0.01 µM [%]
1,COc1ccc(C(=O)N2CCOC23CCN(S(=O)(=O)c2ccc(OC)cc2)CC3)cc1 [Compound C0019],30.1
2,O=S(=O)(c1ccc2ccccc2c1)N1CCC2(CC1)OCCN2S(=O)(=O)c1ccc2ccccc2c1 [Compound C0140M],42.3
3,O=S(=O)(c1ccc(Oc2ccccc2)cc1)N1CCC2(CC1)OCCN2S(=O)(=O)c1ccc(Oc2ccccc2)cc1 [Compound C0149M],48.5
4,COc1cccc(OC)c1C(=O)CC1c2c(cc3c(c2OC)OCO3)CC[N+]1(C)C (stereo not drawn) [Compound B0023],28.5

# Same assay, conditions: read-out: Percent Binding Inhibition, FLNA-binding compound 0.1 μM; 10 nM FITC-NLX
row,Structure (SMILES),inhibition at 0.1 µM [%]
1,COc1ccc(C(=O)N2CCOC23CCN(S(=O)(=O)c2ccc(OC)cc2)CC3)cc1 [Compound C0019],38.2
2,O=S(=O)(c1ccc2ccccc2c1)N1CCC2(CC1)OCCN2S(=O)(=O)c1ccc2ccccc2c1 [Compound C0140M],49.2
3,O=S(=O)(c1ccc(Oc2ccccc2)cc1)N1CCC2(CC1)OCCN2S(=O)(=O)c1ccc(Oc2ccccc2)cc1 [Compound C0149M],52.3
4,COc1cccc(OC)c1C(=O)CC1c2c(cc3c(c2OC)OCO3)CC[N+]1(C)C (stereo not drawn) [Compound B0023],37.8

# Same assay, conditions: read-out: Percent Binding Inhibition, FLNA-binding compound 1 μM; 10 nM FITC-NLX
row,Structure (SMILES),inhibition at 1 µM [%]
1,COc1ccc(C(=O)N2CCOC23CCN(S(=O)(=O)c2ccc(OC)cc2)CC3)cc1 [Compound C0019],43.6
2,O=S(=O)(c1ccc2ccccc2c1)N1CCC2(CC1)OCCN2S(=O)(=O)c1ccc2ccccc2c1 [Compound C0140M],54.4
3,O=S(=O)(c1ccc(Oc2ccccc2)cc1)N1CCC2(CC1)OCCN2S(=O)(=O)c1ccc(Oc2ccccc2)cc1 [Compound C0149M],62
4,COc1cccc(OC)c1C(=O)CC1c2c(cc3c(c2OC)OCO3)CC[N+]1(C)C (stereo not drawn) [Compound B0023],46.4
